Consider 11 compounds from CN117800914A, “一种抗SARS-CoV-2病毒奥密克戎突变种抑制剂” (Second Military Medical University SMMU, priority 2023, dated 2024).

The first assay deals with SARS-CoV-2 mutant strains (SARS-CoV-2突变株). Conditions: treatment of SARS-CoV-2 mutant strains; cited from earlier work.
For the compound `NC(=O)c1nc(F)c[nH]c1=O` [法维拉韦], the “clinical performance in treating SARS-CoV-2 mutant strains (in words)” value is on record as “不尽如人意”.

`CCC(CC)COC(=O)[C@H](C)N[P@](=O)(OC[C@H]1O[C@@](C#N)(c2ccc3c(N)ncnn23)[C@H](O)[C@@H]1O)Oc1ccccc1` [瑞德西韦]: the “clinical performance in treating SARS-CoV-2 mutant strains (in words)” value was “不尽如人意”.

In the next assay the test system is SARS-CoV-2 Omicron mutant BA.2 (SARS-CoV-2奥密克戎毒突变种BA.2). It is filed as cell-based, SARS-CoV-2 Omicron BA.2. Conditions: 20 h.
As a reminder, the IC50 is the concentration at which inhibition is half-maximal. Regarding `COc1cc2cc(c1)NC(=O)C[C@@H](OC)/C=C/C=C/C=C/C[C@H](O)[C@H](C)[C@@H](OC(=O)[C@@H](C)NC(=O)CC(C)C)/C(C)=C\CC2` [C7], 825 nM corresponded to half-maximal inhibition (IC50).

`COc1cc2c(O)c(c1)NC(=O)C[C@@H](OC)/C=C/C=C/C=C/C[C@H](O)[C@H](C)[C@@H](OC(=O)[C@@H](C)NC(=O)CC(C)C)/C(C)=C\CC2` [C8] displayed an IC50 of 400 nM.

For the compound `CCC(C)C(=O)N[C@H](C)C(=O)O[C@H]1C/C=C/C=C/C=C/[C@H](OC)CC(=O)Nc2cc(ccc2F)CC/C=C(/C)[C@H](O)[C@H]1C` (some centres unmarked) [B5], the IC50 stood at 200 nM.

As for `C/C=C(\C)C(=O)N[C@H](C)C(=O)O[C@H]1C/C=C/C=C/C=C/[C@H](OC)CC(=O)Nc2cc(ccc2F)CC/C=C(/C)[C@H](O)[C@H]1C` [B6], inhibition was half-maximal at 413 nM (IC50).

As to `CO[C@H]1/C=C/C=C/C=C/C[C@H](OC(=O)[C@@H](C)NC(=O)CC(C)C)[C@H](C)[C@@H](O)/C(C)=C\CCc2cccc(c2)NC(=O)C1` [D1], the IC50 is > 5000 nM.

`CO[C@H]1/C=C/C=C/C=C/C[C@H](OC(=O)[C@@H](C)NC(=O)CCC(C)C)[C@H](C)[C@@H](O)/C(CO)=C\CCc2cc(F)cc(c2)NC(=O)C1` [A6]: it took 450 nM to reach half-maximal inhibition (IC50).

For the compound `CO[C@H]1/C=C/C=C/C=C/C[C@H](OC(=O)[C@@H](C)NC(=O)CCC(C)C)[C@H](C)[C@@H](O)/C(C)=C\CCc2ccc(F)c(c2)NC(=O)C1` [B8], the IC50 turned out to be 1100 nM.

`CO[C@H]1/C=C/C=C/C=C/C[C@H](O)[C@H](C)[C@@H](OC(=O)[C@@H](C)NC(=O)CC(C)C)/C(C)=C\CCc2ccc(F)c(c2)NC(=O)C1` [B3] showed an IC50 of 1190 nM.

Regarding `CO[C@H]1/C=C/C=C/C=C/C[C@H](OC(=O)[C@@H](C)NC(=O)CC(C)C)[C@H](C)[C@@H](O)/C(C)=C\CCc2ccc(F)c(c2)NC(=O)C1` [B1], half-maximal inhibition (IC50) required 300 nM. Against the preceding compound, the IC50 is about 4-fold lower.
